Reference: patent US20230117034A1, “PYRAZOLOTRIAZINES” (Bayer Aktiengesellschaft, priority 2019, published 2023)

Experiments:
[1] = biological target: T1, CYCLIN K (nuclear staining in CAL-120 cells) (Homo sapiens, UniProt O75909); assay: CYCLIN K nuclear protein level: immunofluorescence high content analysis (CAL-120); assay type: cell-based; conditions: 24 h, 50% reduction of nuclear CCNK staining intensity, median, read-out: CYCLIN K degradation IF, DC50-[mol/l] (median)
T1 construct: endogenous in cells; host or cells: CAL-120 human breast cancer cells (DSMZ ACC 459)
T1 sequence (O75909 whole entry): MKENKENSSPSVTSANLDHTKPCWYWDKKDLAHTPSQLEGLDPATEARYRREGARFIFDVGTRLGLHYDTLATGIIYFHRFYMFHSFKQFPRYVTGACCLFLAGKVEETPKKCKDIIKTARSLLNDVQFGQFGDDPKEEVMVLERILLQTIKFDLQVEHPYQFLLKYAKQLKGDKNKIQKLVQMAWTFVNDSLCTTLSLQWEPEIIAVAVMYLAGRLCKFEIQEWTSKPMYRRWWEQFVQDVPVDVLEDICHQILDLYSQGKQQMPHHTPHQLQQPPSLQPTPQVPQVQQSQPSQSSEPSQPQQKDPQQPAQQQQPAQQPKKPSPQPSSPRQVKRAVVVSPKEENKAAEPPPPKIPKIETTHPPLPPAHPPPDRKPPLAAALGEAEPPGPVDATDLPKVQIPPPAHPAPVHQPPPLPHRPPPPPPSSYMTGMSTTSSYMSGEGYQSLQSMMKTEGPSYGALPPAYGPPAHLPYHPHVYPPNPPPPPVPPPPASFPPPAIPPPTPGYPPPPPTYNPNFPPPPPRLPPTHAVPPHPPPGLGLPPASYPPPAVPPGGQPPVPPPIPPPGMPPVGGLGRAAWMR
T1 sequence (Q9NYV4 whole entry partner): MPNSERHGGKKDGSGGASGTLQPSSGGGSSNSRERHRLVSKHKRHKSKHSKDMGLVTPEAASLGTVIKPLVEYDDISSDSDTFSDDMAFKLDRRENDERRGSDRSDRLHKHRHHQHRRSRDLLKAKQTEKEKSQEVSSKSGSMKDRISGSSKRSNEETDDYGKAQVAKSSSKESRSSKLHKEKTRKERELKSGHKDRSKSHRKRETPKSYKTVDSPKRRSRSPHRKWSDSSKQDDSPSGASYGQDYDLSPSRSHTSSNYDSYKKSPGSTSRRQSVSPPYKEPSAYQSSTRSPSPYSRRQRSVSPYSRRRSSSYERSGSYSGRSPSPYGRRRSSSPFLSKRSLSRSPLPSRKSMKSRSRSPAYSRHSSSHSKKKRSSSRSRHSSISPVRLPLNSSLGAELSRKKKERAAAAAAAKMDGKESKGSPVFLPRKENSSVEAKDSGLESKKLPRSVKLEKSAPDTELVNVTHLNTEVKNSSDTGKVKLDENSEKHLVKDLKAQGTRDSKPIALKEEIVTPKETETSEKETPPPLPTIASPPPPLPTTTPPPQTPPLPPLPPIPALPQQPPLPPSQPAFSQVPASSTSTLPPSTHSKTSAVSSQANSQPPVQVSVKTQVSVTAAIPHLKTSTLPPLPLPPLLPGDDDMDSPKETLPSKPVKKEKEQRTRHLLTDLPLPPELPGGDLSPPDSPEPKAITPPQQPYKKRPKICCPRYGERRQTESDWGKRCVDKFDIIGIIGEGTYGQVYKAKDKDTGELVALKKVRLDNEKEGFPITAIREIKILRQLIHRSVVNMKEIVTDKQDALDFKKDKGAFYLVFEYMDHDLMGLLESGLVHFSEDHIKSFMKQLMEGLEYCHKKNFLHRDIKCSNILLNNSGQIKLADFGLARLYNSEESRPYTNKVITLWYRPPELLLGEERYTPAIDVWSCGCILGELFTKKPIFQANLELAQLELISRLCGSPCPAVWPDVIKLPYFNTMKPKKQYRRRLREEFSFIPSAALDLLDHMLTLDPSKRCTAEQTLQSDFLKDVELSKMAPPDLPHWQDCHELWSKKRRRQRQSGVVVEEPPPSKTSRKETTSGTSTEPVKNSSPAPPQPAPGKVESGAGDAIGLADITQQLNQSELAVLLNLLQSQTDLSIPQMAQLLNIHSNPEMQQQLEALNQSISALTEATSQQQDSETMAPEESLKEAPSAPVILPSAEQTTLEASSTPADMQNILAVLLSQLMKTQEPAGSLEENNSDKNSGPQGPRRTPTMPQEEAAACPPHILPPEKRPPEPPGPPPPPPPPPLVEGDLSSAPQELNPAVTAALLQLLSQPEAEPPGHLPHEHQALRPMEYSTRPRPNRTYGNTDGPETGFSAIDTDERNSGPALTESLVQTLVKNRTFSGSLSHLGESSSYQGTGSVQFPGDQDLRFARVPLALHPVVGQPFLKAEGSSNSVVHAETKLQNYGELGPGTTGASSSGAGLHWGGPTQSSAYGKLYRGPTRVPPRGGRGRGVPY
Outline: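 Readout is automated confocal image analysis of nuclear cyclin K immunofluorescence (Hoechst nuclei) after PFA fixation. Cells were CAL-120, exposed to compound dose-response 24 h at 37 °C; values are DC50 for halving nuclear CCNK signal relative to DMSO and control wells.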

[2] = tested on: MDA-MB-231, human breast cancer cells; assay: Proliferation assay MDA-MB-231 (crystal violet, 4 days); assay type: cell-based; conditions: Homo sapiens, MDA-MB-231, 96 h, MDA-MB-231 cells, median, read-out: Prolif-MDA MB-231, IC50-[mol/l] (median)
Outline: (§1)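 Growth was measured by crystal violet staining after cells had been treated with compounds (0.01-10 µmol/L, 0.1% DMSO) for 4 days, beginning 24 h after seeding. Values were normalized to a zero-point plate and to untreated controls, and IC50 values were derived by a four-parameter fit.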

[3] = tested on: CAL-120, human breast adenocarcinoma cells; assay: Proliferation assay CAL-120 (crystal violet, 4 days); assay type: cell-based; conditions: Homo sapiens, CAL-120, 96 h, CAL-120 cells, median, read-out: Prolif-CAL-120, IC50-[mol/l] (median)
Outline: as §1

[4] = tested on: BRCA1 mRNA expression in MDA-MB-231 cells; assay: qRT-PCR assay: BRCA1 mRNA expression in MDA-MB-231; assay type: cell-based, human; conditions: Homo sapiens, MDA-MB-231, Inhibition of BRCA1 mRNA expression in MDA-MB-231 cells; median; read-out: RTqPCR-MDA-MB-231, IC50, BRCA1 (median)
Outline: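 First, cells are plated at 200,000 per well and allowed 24 h. Second, test substances are applied continuously for a further 24 h. Finally, RNA is isolated, 600 ng is converted to cDNA, and qPCR quantifies the transcript relative to GAPDH.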

| Structure (SMILES) | DC50 [1] | IC50 [2] | IC50 [3] | IC50 [4] |
| --- | --- | --- | --- | --- |
| CN1CC[C@@H]2CN(c3nc(NCc4nc5ccccc5[nH]4)n4ncc(Br)c4n3)C[C@@H]21 [Example 217, N-[(1H-benzimidazol-2-yl)methyl]-8-bromo-2-[(3aR,6aR)-1-methylhexahydropyrrolo[3,4-b]pyrrol-5 (1H)-yl]pyrazolo[1,5-a][1,3,5]triazin-4-amine] | 4.56 nM | 97.9 nM | 44.9 nM | 33.5 nM |
| CN1C[C@H]2C[C@@H]1CN2c1nc(NCc2nc3ccccc3[nH]2)n2ncc(Br)c2n1 [Example 218, N-[(1H-benzimidazol-2-yl)methyl]-8-bromo-2-[(1R,4R)-5-methyl-2,5-diazabicyclo[2.2.1]heptan-2-yl]pyrazolo[1,5-a][1,3,5]triazin-4-amine] | 0.685 nM | 35.7 nM | 21.1 nM | 12.3 nM |
| CN1C[C@@H]2C[C@H]1CN2c1nc(NCc2nc3ccccc3[nH]2)n2ncc(Br)c2n1 [Example 219, N-[(1H-benzimidazol-2-yl)methyl]-8-bromo-2-[(1S,4S)-5-methyl-2,5-diazabicyclo[2.2.1]heptan-2-yl]pyrazolo[1,5-a][1,3,5]triazin-4-amine] | 1.23 nM | 50.3 nM | 27.2 nM | 11.6 nM |
| Brc1cnn2c(NCc3nc4ccccc4[nH]3)nc(N3CC4CCC3CN4)nc12 (stereo not shown) [Example 220, N-(1H-benzimidazol-2-ylmethyl)-8-bromo-2-(2,5-diazabicyclo[2.2.2]octan-2-yl)pyrazolo[1,5-a][1,3,5]triazin-4-amine] | 1.14 nM | 21.2 nM | 7.04 nM | 4.18 nM |
| CN1CC2CCC1CN2c1nc(NCc2nc3ccccc3[nH]2)n2ncc(Br)c2n1 (stereo not shown) [Example 221, N-(1H-benzimidazol-2-ylmethyl)-8-bromo-2-(5-methyl-2,5-diazabicyclo[2.2.2]octan-2-yl)pyrazolo[1,5-a][1,3,5]triazin-4-amine] | 0.41 nM | 31.7 nM | 13 nM | 11.8 nM |
| Brc1cnn2c(NCc3nc4ccccc4[nH]3)nc(N3CC4CCC(C3)N4)nc12 [Example 232, N-(1H-benzimidazol-2-ylmethyl)-8-bromo-2-(3,8-diazabicyclo[3.2.1]octan-3-yl)pyrazolo[1,5-a][1,3,5]triazin-4-amine] | 1.06 nM | 17.9 nM | 5.25 nM | 4.92 nM |

The remaining lines, values ahead:

| DC50 [1] | IC50 [2] | IC50 [3] | IC50 [4] | Structure (SMILES) |
| --- | --- | --- | --- | --- |
| 2.7 nM | 57.9 nM | 44.2 nM | 15.3 nM | CCNc1nc(NCc2nc3ccccc3[nH]2)n2ncc(Br)c2n1 [Example 227, N4-(1H-benzimidazol-2-ylmethyl)-8-bromo-N2-ethyl-pyrazolo[1,5-a][1,3,5]triazine-2,4-diamine] |
| 0.39 nM | 42.8 nM | 39.4 nM | 10.8 nM | CC(C)(O)CNc1nc(NCc2nc3ccccc3[nH]2)n2ncc(Br)c2n1 [Example 229, 1-[(4-{[(1H-benzimidazol-2-yl)methyl]amino}-8-bromopyrazolo[1,5-a][1,3,5]triazin-2-yl)amino]-2-methylpropan-2-ol] |
| 1.74 nM | 59.9 nM | 31.3 nM | 5.76 nM | O[C@H]1C[C@@H](Nc2nc(NCc3nc4ccccc4[nH]3)n3ncc(Br)c3n2)C1 [Example 234, cis-3-[(4-{[(1H-benzimidazol-2-yl)methyl]amino}-8-bromopyrazolo[1,5-a][1,3,5]triazin-2-yl)amino]cyclobutan-1-ol] |
| 1.72 nM | 90.5 nM | 97.4 nM | 20.4 nM | COC(C)(C)CNc1nc(NCc2nc3ccccc3[nH]2)n2ncc(Br)c2n1 [Example 236, N4-(1H-benzimidazol-2-ylmethyl)-8-bromo-N2-(2-methoxy-2-methyl-propyl)pyrazolo[1,5-a][1,3,5]triazine-2,4-diamine] |
| 4.19 nM | 40.1 nM | 36.3 nM | > 12.4 nM | CN(CC(C)(C)O)c1nc(NCc2nc3ccccc3[nH]2)n2ncc(Br)c2n1 [Example 238, 1-[(4-{[(1H-benzimidazol-2-yl)methyl]amino}-8-bromopyrazolo[1,5-a][1,3,5]triazin-2-yl)(methyl)amino]-2-methylpropan-2-ol] |
| 1.09 nM | 38.6 nM | 23.7 nM | 7.69 nM | CN1CC2CN(c3nc(NCc4nc5ccccc5[nH]4)n4ncc(Br)c4n3)CC2C1 (stereo not shown) [Example 240, N-(1H-benzimidazol-2-ylmethyl)-8-bromo-2-(2-methyl-1,3,3a,4,6,6a-hexahydropyrrolo[3,4-c]pyrrol-5-yl)pyrazolo[1,5-a][1,3,5]triazin-4-amine] |
| 1.26 nM | 28.9 nM | 29.6 nM | 17.3 nM | FC(F)(F)c1cnn2c(NCc3nc4ccccc4[nH]3)nc(N3CCOCC3)nc12 [Example 241, N-[(1H-benzimidazol-2-yl)methyl]-2-(morpholin-4-yl)-8-(trifluoromethyl) pyrazolo[1,5-a][1,3,5]triazin-4-amine] |
